Results from patent publication US20020156038A1, “Gene expression profiling of antidepressant action in the brain” (priority 2000, published 2002).
Structures can show the parent of a compound that is named as a salt.

What was measured:
male Wistar rats = assay: Chronic mild stress (CMS) model, consumption of 1% sucrose solution; format: in vivo, rat; conditions: for sucrose intake as compared to chronic vehicle administration: control animals; for duration of treatment until increase of sucrose intake reached significance / sucrose consumption (CMS-induced deficit) / sucrose intake at end of treatment vs vehicle-treated controls / sucrose intake at end of treatment vs vehicle-treated stressed animals: stressed animals; for sucrose intake at end of treatment vs vehicle-treated controls / sucrose intake at end of treatment vs vehicle-treated stressed animals: Week 5
Source text: Gene expression profiling of antidepressants should be carried in the context of a behavioral model of depression. […] [Willner, 1997 #144] [Yadid, 2000 #422]. The CMS model was developed to mimic anhedonia, a core symptom of depressive disorders. Chronic sequential administration of a variety of mild stressors causes a decrease in responsiveness to rewards in rats, which is reversed by chronic administration of antidepressants drugs [Willner, 1992 #150]. The CMS model of depression also causes a decrease in body weight [Forbes, 1996 #413] but the magnitude of this decrease is minor and the validity, reliability and utility of the CMS is overall well recognized [Yadid, 2000 #422] [Argyropoulos, 1997 #205] #] [Willner, 1996 #226].
On the basis of sucrose intake scores following two weeks of stress, both stressed and control groups were divided further into matched subgroups (n=8), and for the subsequent five weeks received twice-daily intraperitoneal injections of vehicle (isotonic mannitol solution, pH 4.0, 1 ml/kg) or novelR1 (0.16 mg/kg). […] Sucrose tests were carried out twenty-four hours following the last drug injection (in the case of b.i.d. regime, the second injections on the day preceding the sucrose tests were omitted).
The behavioral results obtained in this study were analyzed by multiple analysis of variance with three between-subjects factors (stress/control, drug treatments and successive sucrose tests). Fisher's LSD test was used for post-hoc comparisons of means.

[1] = system: tyrosine hydroxylase mRNA; assay: Quantitative in situ hybridization histochemistry in locus coeruleus; format: in vivo, rat; conditions: LC
Procedure: In situ hybridization histochemistry was performed according to the procedures described [Bonaventure, 1998 #353] on adjacent tissue sections of the one used for LCM. The plasmid (pBluescript II SK, Stratagene, San Diego, Calif.) containing the cDNA coding for tyrosine hydroxylase (GB:M10244) was linearized and [^35S]UTP labeled cRNA probe was generated by in vitro transcription with T7 polymerase. Sections were hybridized at 50° C. with 1.106 c.p.m of [^35S]UTP labeled cRNA probe (80 μl per section). After high stringency washes, the sections were exposed to Kodak BiomaxMR film for sixteen hours. [^14C] standard strips (American Radiolabeled chemicals Inc., St Louis, Missouri) were co-exposed to allow densitometry. Autoradiograms were quantified with the aid of an MCID-M4 3.0 Image Analysis system (Imaging Research, St. Catharines, Ontario, Canada). Optical densities in the LC were transformed into levels of bound radioactivity after calibration of the image analyzer with grey-values generated by co-exposed standards. The hybridization signal was expressed as μCi/g. The Student's t-test was used for comparison between the groups.

SMILES | sucrose intake at the end of the behavioral experiment (male Wistar rats; CMS) | sucrose intake at the end of the behavioral experiment (male Wistar rats; control) | sucrose intake as compared to chronic vehicle administration (male Wistar rats) | duration of treatment until increase of sucrose intake reached significance (male Wistar rats) | sucrose consumption (CMS-induced deficit) (male Wistar rats) | sucrose intake at end of treatment vs vehicle-treated controls (male Wistar rats) | sucrose intake at end of treatment vs vehicle-treated stressed animals (male Wistar rats) | up-regulation of tyrosine hydroxylase mRNA level by in situ hybridization ([1]; drug/CMS group) | up-regulation of tyrosine hydroxylase mRNA level by in situ hybridization ([1]; unstressed rats)
CN(C)CCCN1c2ccccc2CCc2ccccc21 [imipramine, imipramine HCl] | 13 grams | 13 grams | did not change the sucrose intake | three | gradually increased the sucrose consumption | comparable | significantly higher | confirmed | confirmed
Cc1nc2ccccn2c(=O)c1CCN1CCc2oc3ccccc3c2C1 [novelR1] | 13 grams | 13 grams | no significant effect | two | fully reversed | did not differ | significantly higher | confirmed | confirmed
